These results are taken from patent publication EP4759817A1, “HETEROARYL COMPOUND, PREPARATION METHOD THEREFOR, AND USE THEREOF IN MEDICINE” (Jiangsu Hengrui Pharmaceuticals Co., Ltd., priority 2023, dated 2025).

Data set [1] can be described thus: Pharmacokinetic evaluation in Nu/Nu mice (plasma, LC-MS/MS). The class given is in vivo. The following applies: mouse, plasma, po, i.g., 100 mg/kg; for Vd/F: read-out: Apparent volume of distribution V/F; for AUC(0-t): read-out: Area under the curve AUC0-t; for CL/F: read-out: Clearance CL/F; for half-life: read-out: Half life T1/2 (converted); for Cmax: read-out: Plasma concentration Cmax. The protocol:
Using Nu/Nu mice as the test animals, the plasma concentrations of the example compounds at different time points were determined by LC-MS/MS following oral gavage (i.g.) administration. The pharmacokinetic behaviours of the compounds of the present disclosure in Nu/Nu mice were investigated, and their pharmacokinetic profiles were evaluated.
Compound 1-p1, compound 2-p1, compound 8-p1 and comparative example 1.
A total of 36 female Nu/Nu mice (supplied by Vital River Laboratory Animal Technology Co., Ltd.) were randomly divided into 4 groups.
An appropriate amount of each test compound was weighed and dissolved in 5% DMSO+20% PEG400+70% (10% TPGS)+5% (1% HMPC K100LV) to prepare a 10 mg/mL colourless clear solution.
The administration dosage was 100 mg/kg, and the administration volume was 10 mL/kg.
Mice were not fasted. After oral gavage administration, blood (0.1 mL) was collected from the orbital cavity before administration, and at 0.25 h, 0.5 h, 1.0 h, 2.0 h, 4.0 h, 6.0 h, 8.0 h, 11.0 h and 24.0 h after administration. The blood was placed into EDTA-K2 anticoagulant tubes and centrifuged at 10000 rpm for 1 minute (4°C) to separate plasma. The plasma was separated within 1 h and stored at -20°C until analysis. The entire process from blood collection to centrifugation was performed in ice bath conditions.
Determination of test compound contents in plasma of Nu/Nu mice after administration of different compounds: To 20 µL of plasma samples from each time point in Nu/Nu mice, 200 µL of acetonitrile and 25 µL of verapamil (100 ng/mL) were added. The mixture was vortex-mixed for 5 minutes and centrifuged at 4000 rpm for 15 minutes. 90 µL of water and 90 µL of the supernatant were vortex-mixed for 5 minutes. 2 µL (for compound 1-p1), 2 µL (for compound 2-p1), 1 µL (for compound 8-p1), or 0.5 µL (for comparative example 1) of the supernatant was taken for LC-MS/MS analysis receptively.

Data set [2] deals with T1, Recombinant human PRMT5: MEP50 protein (Homo sapiens, UniProt O14744).
T1 construct: purchased active motif 31521
The data set is described as follows: Inhibitory activity against human PRMT5 enzymatic activity (HTRF quantification of SAH, +MTA). The format is biochemical. To be noted: +1 µM MTA; histone H4 peptide substrate (1-21), SAM; 37°C 120 min. The protocol: • 1. Recombinant human PRMT5: MEP50 protein (active motif, 31521) • 2. EPIgeneous Methyltransferase kit (cisbio, 62SAHPEH) • 3. 96-well plate (Sangon Biotech, F610960-0010) • 4. 384-well white plate (Perkin Elmer, 6007290) • 5. 1 M Tris-HCl [pH 8.5] (Sangon Biotech, B548141) • 6. Histone H4 peptide substrates (1-21) (BPS bioscience, 52014) • 7. 5'-deoxy-5'-(methylthio)adenosine (Aladdin, D168979-25 mg) • 8. Tween-20 (Sangon Biotech, A100777-0500) • 9. DMSO (Sigma, D2650) • 10. Incubator (Shanghai Boxun Medical Biological Instrument Corp.) • 11. PHERAstar FS microplate reader (BMG Labtech)
PRMT5 can induce the transfer of a methyl group from S-adenosylmethionine (SAM) to a histone H4 peptide substrate (1-21), generating S-adenosylhomocysteine (SAH). In this experiment, the amount of SAH produced in the reaction is quantified using a Homogeneous Time-Resolved Fluorescence (HTRF) method to evaluate the inhibitory activity of compounds against PRMT5 enzymatic activity.
The sample diluent containing (or not containing) 1 µM 5 '-deoxy-5' - (methylthiyl) adenosine (MTA) was prepared using the EPIgeneous Diluent Buffer from the EPIgeneous Methyltransferase kit. With reference to the instructions, SAM and SAH standards were serially diluted and dispensed at 10 µL per well (in duplicate for each concentration). 2 µL of EPIgeneous Detection Buffer 1 was added to each well, and the plate was centrifuged, shaken to mix thoroughly, and placed at room temperature for 10 min. The SAH d2 Reagent was diluted 32-fold with EPIgeneous Detection Buffer 2, and 4 µL of the diluted SAH-d2 solution was added to each well. The plate was centrifuged and shaken for 2 min to mix thoroughly. The SAH Tb Cryptate Antibody was diluted 50-fold in EPIgeneous Detection Buffer 2. 4 µL of the diluted Tb Cryptate Antibody solution was added to each well, and the plate was centrifuged, shaken for 2 min to mix thoroughly, and left to stand at room temperature for 60 min, followed by reading on a PHERAstar FS microplate reader to obtain the 665/620 ratio. Plotting SAH concentration against the ratio to generate an x-y curve yields a corresponding calculation formula.
Reaction buffer (1×): 50 mM Tris-HCl [pH 8.5], 1 mM DTT, 0.005% Tween-20.
Compound preparation: a 20 mM solution of test compound in 100% DMSO was diluted in 100% DMSO to 1 mM as the highest concentration, and the solution at this concentration was then subjected to a 10-point, 3-fold serial dilution in 100% DMSO in a 96-well plate. Wells containing 100% DMSO served as the blank control. The above-described serially diluted compounds and the 100% DMSO were diluted 20-fold with the reaction buffer to prepare 5× compound solutions, which were mixed thoroughly for use.
The PRMT5:MEP50 was diluted in the reaction buffer to a final concentration of 12.5 nM. Then, 4 µL of the 12.5 nM PRMT5:MEP50 solution was added to each well of a 384-well plate. Wells containing 4 µL of the reaction buffer served as the negative control wells. 2 µL of the 5× compound solution was added to each well. For the negative control wells (no enzyme, no compound) and the positive control wells (no compound), 2 µL of 5% DMSO was added. The plate was sealed with a membrane, centrifuged, shaken for 2 min to mix thoroughly, and placed at room temperature for 20 min.
Preparation of substrate mixture solution: The substrate mixture solution containing 1.5 µM histone H4 peptide substrate (1-21) and 2.5 µM SAM, or 1.5 µM histone H4 peptide substrate (1-21), 2.5 µM SAM and 2.5 µM MTA was prepared in the reaction buffer.
The reaction was initiated by adding 4 µL of the substrate mixture solution (-/+ MTA) to each well. The plate was sealed with a membrane, centrifuged, shaken for 2 min to mix thoroughly, and incubated at 37°C for 120 min in a constant temperature incubator.
Detection: The detection was performed by using the EPIgeneous Methyltransferase kit. […]

T1 sequence (O14744 whole entry): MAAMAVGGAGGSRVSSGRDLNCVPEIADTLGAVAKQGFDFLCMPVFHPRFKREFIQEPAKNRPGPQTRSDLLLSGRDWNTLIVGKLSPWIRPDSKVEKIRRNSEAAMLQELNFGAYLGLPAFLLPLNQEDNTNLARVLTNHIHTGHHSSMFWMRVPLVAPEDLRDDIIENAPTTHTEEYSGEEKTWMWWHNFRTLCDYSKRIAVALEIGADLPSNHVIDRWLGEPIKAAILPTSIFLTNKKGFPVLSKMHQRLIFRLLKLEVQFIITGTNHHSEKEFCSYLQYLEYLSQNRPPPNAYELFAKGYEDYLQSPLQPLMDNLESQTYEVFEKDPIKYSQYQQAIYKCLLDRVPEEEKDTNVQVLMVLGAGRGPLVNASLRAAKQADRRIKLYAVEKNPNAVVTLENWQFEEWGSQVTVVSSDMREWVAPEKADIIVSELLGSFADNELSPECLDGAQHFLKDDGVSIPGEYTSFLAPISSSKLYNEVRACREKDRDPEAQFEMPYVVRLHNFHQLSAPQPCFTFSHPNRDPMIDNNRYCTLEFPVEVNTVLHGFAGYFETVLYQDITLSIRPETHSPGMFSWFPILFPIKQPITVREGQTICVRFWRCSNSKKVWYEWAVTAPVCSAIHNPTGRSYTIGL
T1 sequence (Q9BQA1 whole entry partner): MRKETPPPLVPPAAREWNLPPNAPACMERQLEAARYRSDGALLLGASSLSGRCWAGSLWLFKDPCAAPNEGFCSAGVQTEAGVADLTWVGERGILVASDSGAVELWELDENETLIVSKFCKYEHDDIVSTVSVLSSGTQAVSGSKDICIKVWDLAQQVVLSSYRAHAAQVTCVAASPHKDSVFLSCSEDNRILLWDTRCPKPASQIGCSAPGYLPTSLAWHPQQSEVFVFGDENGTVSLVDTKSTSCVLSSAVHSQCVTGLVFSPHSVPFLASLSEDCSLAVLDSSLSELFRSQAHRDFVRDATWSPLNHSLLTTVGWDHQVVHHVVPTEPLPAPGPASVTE

As to `Cn1ncc(-c2ccc3c(=O)[nH]nc(CN)c3c2)c1-c1c(F)cc2c(c1C#N)O[C@H]1CC[C@H]1O2` (atropisomer, axis not shown; (M)) [Compound 1-p1, (M)-(2aS,8aR)-5-(4-(4-(aminomethyl)-1-oxo-1,2-dihydrophthalazin-6-yl)-1-methyl-1H-pyrazol-5-yl)-6-fluoro-1,2,2a,8a-tetrahydrobenzo[b]cyclobuta[e][1,4]dioxine-4-carbonitrile], in data set [1], the Vd/F is 35.4 L/kg, the AUC(0-t) amounted to 8650 ng·h/mL, the CL/F came out at 189 mL/min/kg and the half-life was 2.2 h. The Cmax in data set [1] turned out to be 3250 ng/mL. Besides, the IC50 in data set [2] was determined as 4.91 nM.
Regarding `[2H]C([2H])([2H])n1ncc(-c2ccc3c(=O)[nH]nc(CN)c3c2)c1-c1c(F)cc2c(c1C#N)O[C@H]1CC[C@H]1O2` (single isomer, unassigned) [Compound 2-p1], in data set [1], the Vd/F worked out at 23.3 L/kg, the AUC(0-t) was 7140 ng·h/mL, the CL/F came out at 233 mL/min/kg and the half-life is 1.2 h. The Cmax in data set [1] was 2940 ng/mL. In data set [2], the IC50 was 5.23 nM.
On to `[2H]C([2H])([2H])n1ncc(-c2ccc3c(=O)[nH]nc(CN)c3c2)c1-c1c(F)cc2c(c1C#N)N1CCC[C@H]1CO2` (single isomer, unassigned) [Compound 8-p1], for which, in data set [1], the Vd/F is 23.9 L/kg, the AUC(0-t) worked out at 7640 ng·h/mL, the CL/F was determined as 218 mL/min/kg and the half-life is 1.3 h. For the same compound, the Cmax in data set [1] was determined as 2530 ng/mL. Further, the IC50 in data set [2] turned out to be 5.19 nM.
